Data from PubChem BioAssay AID2060619 (Molecular Pharmacology Branch, DTP, NCI, 2025).

System: 323965-272-R-J2-PDC complex spheroid viability
Assay: Anticancer human tumor 323965-272-R-J2-PDC patient-derived pancreatic carcinoma cell line growth inhibition [CLK]
Conditions: for IC50: curve of first compound; for viability, T/C: stronger effect = lower value
Procedure, shortened: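 Multi-cell-type spheroids combined patient-derived tumor cells with HUVEC endothelial cells and human mesenchymal stem cells. Paired agents were dosed in half-log steps down from about clinical Cmax, or from 10 microM where Cmax was unknown.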

[1] = second compound 0.0316 µM, first compound 0.0316 µM
[2] = second compound 0.0316 µM, first compound 0.1 µM
[3] = second compound 0.0316 µM, first compound 0.316 µM
[4] = second compound 0.0316 µM, first compound 1 µM
[5] = second compound 0.0316 µM, first compound 3.16 µM
[6] = second compound 0.0316 µM, first compound 10 µM
[7] = second compound 0.1 µM, first compound 0.0316 µM
[8] = second compound 0.1 µM, first compound 0.1 µM
[9] = second compound 0.1 µM, first compound 0.316 µM
[10] = second compound 0.1 µM, first compound 1 µM
[11] = second compound 0.1 µM, first compound 3.16 µM
[12] = second compound 0.1 µM, first compound 10 µM
[13] = second compound 0.316 µM, first compound 0.0316 µM
[14] = second compound 0.316 µM, first compound 0.1 µM
[15] = second compound 0.316 µM, first compound 0.316 µM
[16] = second compound 0.316 µM, first compound 1 µM
[17] = second compound 0.316 µM, first compound 3.16 µM
[18] = second compound 0.316 µM, first compound 10 µM
[19] = second compound 1 µM, first compound 0.0316 µM
[20] = second compound 1 µM, first compound 0.1 µM
[21] = second compound 1 µM, first compound 0.316 µM
[22] = second compound 1 µM, first compound 1 µM
[23] = second compound 1 µM, first compound 3.16 µM
[24] = second compound 1 µM, first compound 10 µM
[25] = second compound 3.16 µM, first compound 0.0316 µM
[26] = second compound 3.16 µM, first compound 0.1 µM
[27] = second compound 3.16 µM, first compound 0.316 µM
[28] = second compound 3.16 µM, first compound 1 µM
[29] = second compound 3.16 µM, first compound 3.16 µM
[30] = second compound 3.16 µM, first compound 10 µM
[31] = second compound 10 µM, first compound 0.0316 µM
[32] = second compound 10 µM, first compound 0.1 µM
[33] = second compound 10 µM, first compound 0.316 µM
[34] = second compound 10 µM, first compound 1 µM
[35] = second compound 10 µM, first compound 3.16 µM
[36] = second compound 10 µM, first compound 10 µM
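Also: spheroids exposed to agents for seven days before readout.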
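For viability, T/C in this document: percent of DMSO vehicle control wells so 100% = untreated growth.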

## C#Cc1c(F)ccc2cc(O)cc(-c3ncc4c(N5CC6CCC(C5)N6)nc(OCC56CCCN5CC(F)C6)nc4c3F)c12 (stereo not drawn) + CNC(=O)c1ccc(Nc2nc(OC3CCCC3)c3c(-c4ccc5nc(C)oc5c4)c[nH]c3n2)c(OC)c1
Second compound 0.0316 µM
  IC50: > 10000 nM
Second compound 0.1 µM
  IC50: 2630 nM
Second compound 0.316 µM
  IC50: 633 nM
Second compound 1 µM
  IC50: < 31.6 nM
Second compound 3.16 µM
  IC50: < 31.6 nM
Second compound 10 µM
  IC50: < 31.6 nM
[1]
  viability, T/C: 92.6%
[2]
  viability, T/C: 88.8%
[3]
  viability, T/C: 98.8%
[4]
  viability, T/C: 74.3%
[5]
  viability, T/C: 62.6%
[6]
  viability, T/C: 51.4%
[7]
  viability, T/C: 75%
[8]
  viability, T/C: 77.9%
[9]
  viability, T/C: 62.5%
[10]
  viability, T/C: 58.7%
[11]
  viability, T/C: 47.8%
[12]
  viability, T/C: 38.6%
[13]
  viability, T/C: 58.9%
[14]
  viability, T/C: 59.8%
[15]
  viability, T/C: 51.9%
[16]
  viability, T/C: 49.3%
[17]
  viability, T/C: 35.8%
[18]
  viability, T/C: 32.3%
[19]
  viability, T/C: 43.2%
[20]
  viability, T/C: 37.7%
[21]
  viability, T/C: 42.4%
[22]
  viability, T/C: 39.3%
[23]
  viability, T/C: 30.8%
[24]
  viability, T/C: 23.2%
[25]
  viability, T/C: 36.5%
[26]
  viability, T/C: 43.9%
[27]
  viability, T/C: 36.8%
[28]
  viability, T/C: 33.5%
[29]
  viability, T/C: 26%
[30]
  viability, T/C: 20.2%
[31]
  viability, T/C: 39.6%
[32]
  viability, T/C: 38.2%
[33]
  viability, T/C: 38.1%
[34]
  viability, T/C: 29.8%
[35]
  viability, T/C: 25.7%
[36]
  viability, T/C: 19.6%

## C=C(F)C(=O)N1CCN(c2nc(OCC3CCCN3C)nc3c2CCN(c2cccc4cccc(Cl)c24)C3)CC1CC#N (stereo not drawn) + CNC(=O)c1ccc(Nc2nc(OC3CCCC3)c3c(-c4ccc5nc(C)oc5c4)c[nH]c3n2)c(OC)c1
Second compound 0.0316 µM
  IC50: 7910 nM
Second compound 0.1 µM
  IC50: 31.6 nM
Second compound 0.316 µM
  IC50: < 31.6 nM
Second compound 1 µM
  IC50: < 31.6 nM
Second compound 3.16 µM
  IC50: < 31.6 nM
Second compound 10 µM
  IC50: < 31.6 nM
[1]
  viability, T/C: 69.7%
[2]
  viability, T/C: 49.6%
[3]
  viability, T/C: 52.8%
[4]
  viability, T/C: 78%
[5]
  viability, T/C: 85.2%
[6]
  viability, T/C: 17.7%
[7]
  viability, T/C: 47.7%
[8]
  viability, T/C: 40.4%
[9]
  viability, T/C: 39.6%
[10]
  viability, T/C: 48.5%
[11]
  viability, T/C: 64%
[12]
  viability, T/C: 9.35%
[13]
  viability, T/C: 36.1%
[14]
  viability, T/C: 28.4%
[15]
  viability, T/C: 32.9%
[16]
  viability, T/C: 33.4%
[17]
  viability, T/C: 45.2%
[18]
  viability, T/C: 1.42%
[19]
  viability, T/C: 25.8%
[20]
  viability, T/C: 22%
[21]
  viability, T/C: 25.6%
[22]
  viability, T/C: 27.8%
[23]
  viability, T/C: 31%
[24]
  viability, T/C: 0.63%
[25]
  viability, T/C: 26.2%
[26]
  viability, T/C: 20.6%
[27]
  viability, T/C: 22.1%
[28]
  viability, T/C: 23.6%
[29]
  viability, T/C: 28.9%
[30]
  viability, T/C: 0.56%
[31]
  viability, T/C: 23.2%
[32]
  viability, T/C: 20.8%
[33]
  viability, T/C: 21.2%
[34]
  viability, T/C: 28.3%
[35]
  viability, T/C: 24.8%
[36]
  viability, T/C: 0.31%

## C=CC(=O)N1CCN(c2nc(=O)n(-c3c(C)ccnc3C(C)C)c3nc(-c4c(O)cccc4F)c(F)cc23)C(C)C1 (stereo not drawn) + CNC(=O)c1ccc(Nc2nc(OC3CCCC3)c3c(-c4ccc5nc(C)oc5c4)c[nH]c3n2)c(OC)c1
Second compound 0.0316 µM
  IC50: > 10000 nM
Second compound 0.1 µM
  IC50: > 10000 nM
Second compound 0.316 µM
  IC50: < 31.6 nM
Second compound 1 µM
  IC50: < 31.6 nM
Second compound 3.16 µM
  IC50: < 31.6 nM
Second compound 10 µM
  IC50: < 31.6 nM
[1]
  viability, T/C: 61.4%
[2]
  viability, T/C: 66.7%
[3]
  viability, T/C: 66.9%
[4]
  viability, T/C: 73.9%
[5]
  viability, T/C: 69%
[6]
  viability, T/C: 76.4%
[7]
  viability, T/C: 66.6%
[8]
  viability, T/C: 59.5%
[9]
  viability, T/C: 59.1%
[10]
  viability, T/C: 55.4%
[11]
  viability, T/C: 59.5%
[12]
  viability, T/C: 58.7%
[13]
  viability, T/C: 44.8%
[14]
  viability, T/C: 41.1%
[15]
  viability, T/C: 39.7%
[16]
  viability, T/C: 47.8%
[17]
  viability, T/C: 45.1%
[18]
  viability, T/C: 44.4%
[19]
  viability, T/C: 28.3%
[20]
  viability, T/C: 25.1%
[21]
  viability, T/C: 24.4%
[22]
  viability, T/C: 27.9%
[23]
  viability, T/C: 28.2%
[24]
  viability, T/C: 29%
[25]
  viability, T/C: 26.9%
[26]
  viability, T/C: 25.8%
[27]
  viability, T/C: 28.5%
[28]
  viability, T/C: 23.9%
[29]
  viability, T/C: 26.6%
[30]
  viability, T/C: 30.3%
[31]
  viability, T/C: 23.2%
[32]
  viability, T/C: 21.4%
[33]
  viability, T/C: 26.9%
[34]
  viability, T/C: 24.4%
[35]
  viability, T/C: 27.1%
[36]
  viability, T/C: 28.6%

## COC1C=CCC(C)C(C)S(=O)(=O)NC(=O)c2ccc3c(c2)N(CC2CCC21)CC1(CCCc2cc(Cl)ccc21)CO3 (stereo not drawn) + CNC(=O)c1ccc(Nc2nc(OC3CCCC3)c3c(-c4ccc5nc(C)oc5c4)c[nH]c3n2)c(OC)c1
Second compound 0.0316 µM
  IC50: 2200 nM
Second compound 0.1 µM
  IC50: 1370 nM
Second compound 0.316 µM
  IC50: 580 nM
Second compound 1 µM
  IC50: < 31.6 nM
Second compound 3.16 µM
  IC50: < 31.6 nM
Second compound 10 µM
  IC50: 53.1 nM
[1]
  viability, T/C: 106%
[2]
  viability, T/C: 119%
[3]
  viability, T/C: 85.4%
[4]
  viability, T/C: 68.3%
[5]
  viability, T/C: 43.9%
[6]
  viability, T/C: 23.2%
[7]
  viability, T/C: 105%
[8]
  viability, T/C: 86.5%
[9]
  viability, T/C: 68.8%
[10]
  viability, T/C: 57.4%
[11]
  viability, T/C: 36.8%
[12]
  viability, T/C: 25.1%
[13]
  viability, T/C: 74.1%
[14]
  viability, T/C: 62%
[15]
  viability, T/C: 56.9%
[16]
  viability, T/C: 42.3%
[17]
  viability, T/C: 39.1%
[18]
  viability, T/C: 21.4%
[19]
  viability, T/C: 47.6%
[20]
  viability, T/C: 47.8%
[21]
  viability, T/C: 39.1%
[22]
  viability, T/C: 37.4%
[23]
  viability, T/C: 30.7%
[24]
  viability, T/C: 21.5%
[25]
  viability, T/C: 46.1%
[26]
  viability, T/C: 43.5%
[27]
  viability, T/C: 36.7%
[28]
  viability, T/C: 29.7%
[29]
  viability, T/C: 28.4%
[30]
  viability, T/C: 20.7%
[31]
  viability, T/C: 54.7%
[32]
  viability, T/C: 45.3%
[33]
  viability, T/C: 32.8%
[34]
  viability, T/C: 29.2%
[35]
  viability, T/C: 24.8%
[36]
  viability, T/C: 18.1%
